Assays:
Assay in all cases: KINOMEscan competition binding
Conditions in all cases: compound 10.0 µM
PRKX (human) = PRKX (human) (UniProt P51817)
SBK1 (human) = SBK1 (human) (UniProt Q52WX2)
BRAF (human) = BRAF (human) (UniProt P15056)
ERN1 (human) = ERN1 (human) (UniProt O75460)
DAPK2 (human) = DAPK2 (human) (UniProt Q9UIK4)
NUAK2 (human) = NUAK2 (human) (UniProt Q9H093)
CDKL3 (human) = CDKL3 (human) (UniProt Q8IVW4)
RIOK3 (human) = RIOK3 (human) (UniProt O14730)
DDR1 (human) = DDR1 (human) (UniProt Q08345)
TAOK3 (human) = TAOK3 (human) (UniProt Q9H2K8)
NEK1 (human) = NEK1 (human) (UniProt Q96PY6)
MAST1 (human) = MAST1 (human) (UniProt Q9Y2H9)
SRPK3 (human) = SRPK3 (human) (UniProt Q9UPE1)
SRPK3 (human), sequence (Q9UPE1 whole entry, looked up): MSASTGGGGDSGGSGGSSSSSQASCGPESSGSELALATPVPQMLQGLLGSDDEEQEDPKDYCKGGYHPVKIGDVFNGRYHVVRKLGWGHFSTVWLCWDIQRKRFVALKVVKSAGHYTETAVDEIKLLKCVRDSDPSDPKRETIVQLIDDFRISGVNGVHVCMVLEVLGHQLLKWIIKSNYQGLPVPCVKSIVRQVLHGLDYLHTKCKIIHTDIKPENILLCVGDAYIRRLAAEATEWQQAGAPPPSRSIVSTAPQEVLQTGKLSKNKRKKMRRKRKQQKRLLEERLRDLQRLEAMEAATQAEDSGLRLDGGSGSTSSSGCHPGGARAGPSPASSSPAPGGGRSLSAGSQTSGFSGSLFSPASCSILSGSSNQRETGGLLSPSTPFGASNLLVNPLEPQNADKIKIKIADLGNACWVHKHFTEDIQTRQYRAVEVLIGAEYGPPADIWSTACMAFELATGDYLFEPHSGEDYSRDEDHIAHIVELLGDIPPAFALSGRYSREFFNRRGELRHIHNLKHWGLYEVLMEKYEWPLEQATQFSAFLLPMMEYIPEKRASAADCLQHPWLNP

PKN3 (M.tuberculosis) = PKN3 (M.tuberculosis) (UniProt Q6P5Z2)
PKN3 (M.tuberculosis), sequence (Q6P5Z2 whole entry, looked up): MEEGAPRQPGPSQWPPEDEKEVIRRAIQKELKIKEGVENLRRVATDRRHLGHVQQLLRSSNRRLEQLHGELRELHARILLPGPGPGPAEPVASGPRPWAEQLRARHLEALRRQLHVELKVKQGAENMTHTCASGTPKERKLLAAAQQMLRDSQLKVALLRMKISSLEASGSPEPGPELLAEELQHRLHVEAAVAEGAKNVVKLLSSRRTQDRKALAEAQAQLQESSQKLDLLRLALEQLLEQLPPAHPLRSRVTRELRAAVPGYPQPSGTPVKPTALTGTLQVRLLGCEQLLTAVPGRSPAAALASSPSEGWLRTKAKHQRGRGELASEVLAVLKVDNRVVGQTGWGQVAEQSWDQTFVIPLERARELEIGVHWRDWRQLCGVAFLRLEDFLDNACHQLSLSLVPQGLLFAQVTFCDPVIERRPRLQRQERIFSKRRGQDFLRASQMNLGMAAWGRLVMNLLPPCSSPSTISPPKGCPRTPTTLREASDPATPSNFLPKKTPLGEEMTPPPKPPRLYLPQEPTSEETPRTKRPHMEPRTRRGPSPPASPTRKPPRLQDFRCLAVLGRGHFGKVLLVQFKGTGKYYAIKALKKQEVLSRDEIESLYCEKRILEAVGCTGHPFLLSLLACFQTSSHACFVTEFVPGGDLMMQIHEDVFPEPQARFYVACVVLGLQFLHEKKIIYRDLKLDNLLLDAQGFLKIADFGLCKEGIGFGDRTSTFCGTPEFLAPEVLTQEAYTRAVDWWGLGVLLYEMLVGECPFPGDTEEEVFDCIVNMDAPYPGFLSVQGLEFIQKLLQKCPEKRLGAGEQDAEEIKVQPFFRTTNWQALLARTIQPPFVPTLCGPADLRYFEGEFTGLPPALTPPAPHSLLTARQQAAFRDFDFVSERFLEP

MAPK14 (human) = MAPK14 (human) (UniProt Q16539)
EPHA6 (human) = EPHA6 (human) (UniProt Q9UF33)
EPHA6 (human), sequence (Q9UF33 whole entry, looked up): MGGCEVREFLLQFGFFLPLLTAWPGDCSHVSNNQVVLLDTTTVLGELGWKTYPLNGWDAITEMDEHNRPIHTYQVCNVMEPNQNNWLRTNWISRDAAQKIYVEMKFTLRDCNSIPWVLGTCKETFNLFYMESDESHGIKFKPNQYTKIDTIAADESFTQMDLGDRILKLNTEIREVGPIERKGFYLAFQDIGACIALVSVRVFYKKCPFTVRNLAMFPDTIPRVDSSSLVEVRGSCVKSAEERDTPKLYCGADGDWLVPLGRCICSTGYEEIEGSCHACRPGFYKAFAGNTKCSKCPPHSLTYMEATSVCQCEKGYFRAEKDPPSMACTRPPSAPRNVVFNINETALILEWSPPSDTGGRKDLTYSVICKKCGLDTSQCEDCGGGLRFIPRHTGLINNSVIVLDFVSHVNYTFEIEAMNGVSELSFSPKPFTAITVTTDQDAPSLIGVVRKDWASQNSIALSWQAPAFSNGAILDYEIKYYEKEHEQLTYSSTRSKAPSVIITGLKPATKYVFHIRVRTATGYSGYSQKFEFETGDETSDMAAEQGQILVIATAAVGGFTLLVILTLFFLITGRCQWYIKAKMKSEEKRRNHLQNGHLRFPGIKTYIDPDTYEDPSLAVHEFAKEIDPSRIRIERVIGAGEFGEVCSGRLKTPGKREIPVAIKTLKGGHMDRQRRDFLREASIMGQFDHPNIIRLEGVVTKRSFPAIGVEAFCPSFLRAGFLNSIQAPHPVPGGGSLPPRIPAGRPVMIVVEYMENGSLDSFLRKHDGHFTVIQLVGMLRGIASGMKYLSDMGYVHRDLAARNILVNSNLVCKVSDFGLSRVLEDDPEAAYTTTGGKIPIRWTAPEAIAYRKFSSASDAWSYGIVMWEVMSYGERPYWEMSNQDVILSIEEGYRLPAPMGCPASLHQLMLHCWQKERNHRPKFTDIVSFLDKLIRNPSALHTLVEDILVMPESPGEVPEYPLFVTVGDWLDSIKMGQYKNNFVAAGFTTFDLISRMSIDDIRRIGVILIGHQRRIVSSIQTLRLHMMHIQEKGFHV

MYO3B (human) = MYO3B (human) (UniProt Q8WXR4)
TBK1 (human) = TBK1 (human) (UniProt Q9UHD2)
[1] = system: PIK3CA (human), P42336 [H1047L]
PIK3CA (human), P42336 [H1047L], sequence (P42336 whole entry H1047L, looked up): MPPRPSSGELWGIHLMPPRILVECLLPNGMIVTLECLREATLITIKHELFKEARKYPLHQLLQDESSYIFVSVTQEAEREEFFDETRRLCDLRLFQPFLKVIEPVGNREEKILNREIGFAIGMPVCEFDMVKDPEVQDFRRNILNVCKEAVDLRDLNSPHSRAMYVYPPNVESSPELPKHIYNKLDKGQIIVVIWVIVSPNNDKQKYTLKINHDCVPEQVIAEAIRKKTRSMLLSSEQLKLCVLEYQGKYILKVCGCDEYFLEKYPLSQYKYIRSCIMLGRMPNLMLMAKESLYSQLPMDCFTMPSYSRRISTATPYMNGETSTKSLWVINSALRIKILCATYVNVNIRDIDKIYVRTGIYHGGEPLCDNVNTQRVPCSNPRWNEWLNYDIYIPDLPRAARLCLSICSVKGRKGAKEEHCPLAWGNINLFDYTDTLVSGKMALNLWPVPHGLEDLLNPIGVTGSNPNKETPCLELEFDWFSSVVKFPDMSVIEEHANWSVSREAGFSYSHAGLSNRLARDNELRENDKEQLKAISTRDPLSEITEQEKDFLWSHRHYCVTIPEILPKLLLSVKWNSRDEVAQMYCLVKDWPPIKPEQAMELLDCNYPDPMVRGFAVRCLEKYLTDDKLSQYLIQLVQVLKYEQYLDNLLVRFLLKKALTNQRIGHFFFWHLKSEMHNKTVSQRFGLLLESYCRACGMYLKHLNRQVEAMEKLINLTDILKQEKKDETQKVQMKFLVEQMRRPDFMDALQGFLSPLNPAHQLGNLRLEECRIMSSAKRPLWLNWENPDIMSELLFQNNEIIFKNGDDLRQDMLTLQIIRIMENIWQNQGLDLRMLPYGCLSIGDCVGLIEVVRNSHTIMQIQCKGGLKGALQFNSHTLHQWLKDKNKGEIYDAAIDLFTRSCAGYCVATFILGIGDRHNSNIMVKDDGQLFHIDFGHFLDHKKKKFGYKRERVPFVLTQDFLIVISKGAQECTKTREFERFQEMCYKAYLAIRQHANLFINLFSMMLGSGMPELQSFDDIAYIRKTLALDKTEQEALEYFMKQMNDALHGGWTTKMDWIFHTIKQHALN

MAK (human) = MAK (human) (UniProt P20794)
MAK (human), sequence (P20794 whole entry, looked up): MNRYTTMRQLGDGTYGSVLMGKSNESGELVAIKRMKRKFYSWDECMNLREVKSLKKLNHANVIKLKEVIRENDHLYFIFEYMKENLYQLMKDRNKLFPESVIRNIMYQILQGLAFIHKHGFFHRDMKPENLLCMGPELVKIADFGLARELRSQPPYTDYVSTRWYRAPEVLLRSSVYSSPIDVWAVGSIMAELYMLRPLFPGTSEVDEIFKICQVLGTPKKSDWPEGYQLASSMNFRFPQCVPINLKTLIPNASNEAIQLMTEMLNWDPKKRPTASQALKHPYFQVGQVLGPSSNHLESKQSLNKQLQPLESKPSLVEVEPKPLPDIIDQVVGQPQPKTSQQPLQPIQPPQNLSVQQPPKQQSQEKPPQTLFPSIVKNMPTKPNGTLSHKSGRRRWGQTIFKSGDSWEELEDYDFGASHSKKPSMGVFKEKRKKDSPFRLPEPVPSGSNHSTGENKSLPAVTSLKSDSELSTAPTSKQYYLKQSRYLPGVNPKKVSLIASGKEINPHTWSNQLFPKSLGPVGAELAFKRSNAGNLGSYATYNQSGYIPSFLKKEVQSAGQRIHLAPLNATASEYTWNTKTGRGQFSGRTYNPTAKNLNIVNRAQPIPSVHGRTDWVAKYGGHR

SIK1 (human) = SIK1 (human) (UniProt P57059)
ERBB3 (human) = ERBB3 (human) (UniProt P21860)
PRPF4B (human) = PRPF4B (human) (UniProt Q13523)
GRK7 (human) = GRK7 (human) (UniProt Q8WTQ7)
PIM2 (human) = PIM2 (human) (UniProt Q9P1W9)
NEK2 (human) = NEK2 (human) (UniProt P51955)
ZAP70 (human) = ZAP70 (human) (UniProt P43403)
CSNK1A1 (human) = CSNK1A1 (human) (UniProt P48729)
EPHA4 (human) = EPHA4 (human) (UniProt P54764)
AURKA (human) = AURKA (human) (UniProt O14965)
INSR (human) = INSR (human) (UniProt P06213)
MAP4K2 (human) = MAP4K2 (human) (UniProt Q12851)
ICK (human) = ICK (human) (UniProt Q9UPZ9)
ICK (human), sequence (Q9UPZ9 whole entry, looked up): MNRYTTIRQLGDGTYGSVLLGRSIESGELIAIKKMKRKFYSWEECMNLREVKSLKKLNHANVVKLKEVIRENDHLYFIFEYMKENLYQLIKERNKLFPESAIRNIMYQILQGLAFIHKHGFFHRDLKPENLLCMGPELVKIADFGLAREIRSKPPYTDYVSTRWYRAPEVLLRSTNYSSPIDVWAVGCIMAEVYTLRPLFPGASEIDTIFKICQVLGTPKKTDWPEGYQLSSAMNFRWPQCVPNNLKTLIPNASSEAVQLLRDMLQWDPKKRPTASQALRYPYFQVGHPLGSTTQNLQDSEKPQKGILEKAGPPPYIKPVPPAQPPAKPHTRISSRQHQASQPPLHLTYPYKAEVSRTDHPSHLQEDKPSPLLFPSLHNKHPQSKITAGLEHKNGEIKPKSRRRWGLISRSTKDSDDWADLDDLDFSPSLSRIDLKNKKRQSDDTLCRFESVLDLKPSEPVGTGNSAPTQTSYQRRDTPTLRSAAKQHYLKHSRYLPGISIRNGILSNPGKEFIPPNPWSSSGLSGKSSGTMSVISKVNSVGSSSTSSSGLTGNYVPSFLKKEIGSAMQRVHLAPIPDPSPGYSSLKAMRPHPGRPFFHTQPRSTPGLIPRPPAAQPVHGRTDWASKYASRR

STK17B (human) = STK17B (human) (UniProt O94768)
AKT3 (human) = AKT3 (human) (UniProt Q9Y243)
PIK3CD (human) = PIK3CD (human) (UniProt O00329)

N#C/C(=C1/Nc2ccccc2S1)c1ccnc(NCCc2cccnc2)n1
kinase still bound, per cent of control (PRKX (human)): 81%
kinase still bound, per cent of control (SBK1 (human)): 94%
kinase still bound, per cent of control (BRAF (human)): 14%
kinase still bound, per cent of control (ERN1 (human)): 79%
kinase still bound, per cent of control (DAPK2 (human)): 34%
kinase still bound, per cent of control (NUAK2 (human)): 100%
kinase still bound, per cent of control (CDKL3 (human)): 100%
kinase still bound, per cent of control (RIOK3 (human)): 33%
kinase still bound, per cent of control (DDR1 (human)): 100%
kinase still bound, per cent of control (TAOK3 (human)): 24%
kinase still bound, per cent of control (NEK1 (human)): 57%
kinase still bound, per cent of control (MAST1 (human)): 100%
kinase still bound, per cent of control (SRPK3 (human)): 23%
kinase still bound, per cent of control (PKN3 (M.tuberculosis)): 4.6%
kinase still bound, per cent of control (MAPK14 (human)): 57%
kinase still bound, per cent of control (EPHA6 (human)): 99%
kinase still bound, per cent of control (MYO3B (human)): 100%
kinase still bound, per cent of control (TBK1 (human)): 81%
kinase still bound, per cent of control [1]: 85%
kinase still bound, per cent of control (MAK (human)): 100%
kinase still bound, per cent of control (SIK1 (human)): 100%
kinase still bound, per cent of control (ERBB3 (human)): 36%
kinase still bound, per cent of control (PRPF4B (human)): 79%
kinase still bound, per cent of control (GRK7 (human)): 47%
kinase still bound, per cent of control (PIM2 (human)): 20%
kinase still bound, per cent of control (NEK2 (human)): 96%
kinase still bound, per cent of control (ZAP70 (human)): 100%
kinase still bound, per cent of control (CSNK1A1 (human)): 9.8%
kinase still bound, per cent of control (EPHA4 (human)): 100%
kinase still bound, per cent of control (AURKA (human)): 100%
kinase still bound, per cent of control (INSR (human)): 92%
kinase still bound, per cent of control (MAP4K2 (human)): 36%
kinase still bound, per cent of control (ICK (human)): 64%
kinase still bound, per cent of control (STK17B (human)): 100%
kinase still bound, per cent of control (AKT3 (human)): 100%
kinase still bound, per cent of control (PIK3CD (human)): 78%

CCN(CCO)CCCOc1ccc2c(Nc3cc(CC(=O)Nc4cccc(F)c4)[nH]n3)ncnc2c1
kinase still bound, per cent of control (PRKX (human)): 66%
kinase still bound, per cent of control (SBK1 (human)): 100%
kinase still bound, per cent of control (BRAF (human)): 100%
kinase still bound, per cent of control (ERN1 (human)): 67%
kinase still bound, per cent of control (DAPK2 (human)): 89%
kinase still bound, per cent of control (NUAK2 (human)): 54%
kinase still bound, per cent of control (CDKL3 (human)): 99%
kinase still bound, per cent of control (RIOK3 (human)): 100%
kinase still bound, per cent of control (DDR1 (human)): 12%
kinase still bound, per cent of control (TAOK3 (human)): 100%
kinase still bound, per cent of control (MAST1 (human)): 90%
kinase still bound, per cent of control (SRPK3 (human)): 100%
kinase still bound, per cent of control (PKN3 (M.tuberculosis)): 50%
kinase still bound, per cent of control (MAPK14 (human)): 100%
kinase still bound, per cent of control (EPHA6 (human)): 69%
kinase still bound, per cent of control (MYO3B (human)): 100%
kinase still bound, per cent of control (TBK1 (human)): 90%
kinase still bound, per cent of control [1]: 73%
kinase still bound, per cent of control (MAK (human)): 92%
kinase still bound, per cent of control (SIK1 (human)): 88%
kinase still bound, per cent of control (ERBB3 (human)): 35%
kinase still bound, per cent of control (PRPF4B (human)): 67%
kinase still bound, per cent of control (GRK7 (human)): 54%
kinase still bound, per cent of control (PIM2 (human)): 100%
kinase still bound, per cent of control (NEK2 (human)): 83%
kinase still bound, per cent of control (ZAP70 (human)): 84%
kinase still bound, per cent of control (CSNK1A1 (human)): 49%
kinase still bound, per cent of control (EPHA4 (human)): 92%
kinase still bound, per cent of control (AURKA (human)): 6.5%
kinase still bound, per cent of control (INSR (human)): 75%
kinase still bound, per cent of control (MAP4K2 (human)): 29%
kinase still bound, per cent of control (ICK (human)): 74%
kinase still bound, per cent of control (STK17B (human)): 93%
kinase still bound, per cent of control (AKT3 (human)): 88%
kinase still bound, per cent of control (PIK3CD (human)): 88%

CCc1nc(-c2cccc(C)c2)c(-c2ccnc(NC(=O)c3ccccc3)c2)s1
kinase still bound, per cent of control (PRKX (human)): 100%
kinase still bound, per cent of control (SBK1 (human)): 100%
kinase still bound, per cent of control (BRAF (human)): 40%
kinase still bound, per cent of control (ERN1 (human)): 100%
kinase still bound, per cent of control (DAPK2 (human)): 88%
kinase still bound, per cent of control (NUAK2 (human)): 100%
kinase still bound, per cent of control (CDKL3 (human)): 81%
kinase still bound, per cent of control (RIOK3 (human)): 100%
kinase still bound, per cent of control (DDR1 (human)): 2.8%
kinase still bound, per cent of control (TAOK3 (human)): 86%
kinase still bound, per cent of control (NEK1 (human)): 90%
kinase still bound, per cent of control (MAST1 (human)): 100%
kinase still bound, per cent of control (SRPK3 (human)): 100%
kinase still bound, per cent of control (PKN3 (M.tuberculosis)): 100%
kinase still bound, per cent of control (EPHA6 (human)): 47%
kinase still bound, per cent of control (MYO3B (human)): 48%
kinase still bound, per cent of control (TBK1 (human)): 100%
kinase still bound, per cent of control [1]: 100%
kinase still bound, per cent of control (MAK (human)): 70%
kinase still bound, per cent of control (SIK1 (human)): 100%
kinase still bound, per cent of control (ERBB3 (human)): 49%
kinase still bound, per cent of control (PRPF4B (human)): 80%
kinase still bound, per cent of control (GRK7 (human)): 100%
kinase still bound, per cent of control (PIM2 (human)): 82%
kinase still bound, per cent of control (NEK2 (human)): 95%
kinase still bound, per cent of control (ZAP70 (human)): 100%
kinase still bound, per cent of control (EPHA4 (human)): 94%
kinase still bound, per cent of control (AURKA (human)): 90%
kinase still bound, per cent of control (MAP4K2 (human)): 93%
kinase still bound, per cent of control (ICK (human)): 100%
kinase still bound, per cent of control (STK17B (human)): 91%
kinase still bound, per cent of control (AKT3 (human)): 95%
kinase still bound, per cent of control (PIK3CD (human)): 100%

From the kinase profiling compilation of Christmann-Franck et al. (2016)
